Assay results published in US20230302160A1, “TUMOR CONTRAST COMPOUND, PREPARATION METHOD THEREFOR AND APPLICATION THEREOF IN TUMOR DIAGNOSTIC IMAGING” (Ningbo Haibo Biotechnology Co., Ltd, priority 2020, published 2023).
Where two headings read alike, the source gives them in different places.

Columns and labels:
[1] = Fluorescence emission spectroscopy test after mixing with surfactin in different ratios; assay type: physicochemical; conditions: for fluorescence quenching in aqueous solution under the action of surfactin compared with methanol solution (emission spectra): compound 20 μM, Ex=730 nm, Em=760-960 nm, ratio 1:5 stated for Compounds 1-3; for fluorescence quenching effect when the amount of surfactin was reduced: compound:surfactin from 1:5 to 1:1, 1:0.2
Description: Surfactin in different concentrations was added to the aqueous solution of the corresponding compound (final concentration of 20 μM), and the molar ratio of the compound to be tested to surfactin was 1:5, 1:1, 1:0.2. A methanol solution of the corresponding compound (final concentration of 20 μM) was used as a positive control. The test solution was shaken for 5 minutes and its fluorescence emission spectra (Ex=730 nm, Em=760-960 nm) were detected using a fluorescence spectrophotometer.

[2] = Fluorescence quenching effect after mixing with surfactin in different ratios (fluorescence imager, ROI); assay type: physicochemical; conditions: compound 20 μM with surfactin
Description: The test solution was shaken for 5 min and added to a black 96-well plate with 50 ul of test solution per experimental well. Then a fluorescence imager was used for imaging. The photos were taken under Ex=745 nm, Em=820 nm. The ROI (Region of Interest) value for each well was quantitatively calculated.

[3] = system: diseased colonic tissue in a mouse primary bowel cancer tumor model (APCmin/+); assay: Near-infrared imaging of diseased colon tissue immersed in compound/surfactin mixture, primary bowel cancer model; conditions: for recognition of tumor lesions: mixture with surfactin 1:5 (20 μM/100 μM), colon tissue immersed 12 min; for imaging ranking: mixture with surfactin 1:5, colon tissue immersed 12 min
Description: Establishment of the mouse primary bowel cancer tumor model of APCmin/+ mouse model: parent C57BL/6J-APC min/+ mice and C57BL/6J wt mice were caged and propagated. The genotype of the offspring was detected and the offspring C57BL/6J-APC min/+ mice (diseased mice) were screened. The offspring C57BL/6J-APC min/+ mice were killed at week 20. Mice were dissected and diseased colon tissue was taken. Colon was cut longitudinally for subsequent tests.
Compounds 1-8 were added to the aqueous solution of surfactin.
The diseased colon tissue of mice was immersed in the above fluid. A fluorescence imager was used for imaging after 12 min.

[4] = system: tumor tissue in a mouse subcutaneous xenograft renal clear cell carcinoma tumor model (786o); assay: Near-infrared imaging of excised tumor tissue immersed in compound/surfactin solution, renal clear cell carcinoma model; conditions: compound 20 μM, surfactin 100 μM (1:5), 786o xenograft tumor tissue immersed; for correlation between uptake by tumor tissues and immersion time: ROI
Description: (§1) Mice were dissected, and tumor tissues were taken.
Compounds 1-8 were added to the aqueous solution of surfactin. The final concentration of surfactin was 100 μM, and the final concentration of each compound was 20 μM (the molar ratio of the compound to surfactant was 1:5).
(§2) The tumor tissue was immersed in the above liquid.

[5] = system: organic anion transporting polypeptides (OATPs); conditions: compound:surfactin 1:5, 1 mM sodium bromosulfophthalein (50 equivalent), renal clear cell carcinoma xenograft tumor tissue
Description: Female nude mice around 5 weeks of age were ordered and subjected to subcutaneous renal clear cell cancer cell 786o inoculation after one week of barrier environmental adaptation at a specific position above the right lower limb (3×10^6/pce, suspended in 200 μl PBS solution). When the tumor volume reached 50-150 mm^3 (about 12-22 days), nude mice were randomly grouped with 3 mice in each experimental group. Mice were dissected, and tumor tissues were taken.
The tumor tissue was immersed in the above liquid. A fluorescence imager was used for imaging after a specified time.

[6] = molar ratio 1:1
Description: Different surfactants were added to the aqueous solution of Compound 4 (final concentration of […]), and the molar ratio of the compound to be tested to surfactin was 1:1. In addition, a methanol solution of the compound (final concentration of 20 μM) was used as a positive control. The test solution was shaken for 5 minutes and its fluorescence emission spectra (Ex=730 nm, Em=760-960 nm) were detected using a fluorescence spectrophotometer.

[7] = system: human renal cancer cell line A498; assay: Fluorescence localization imaging in human renal cancer cell line A498; assay type: cell-based; conditions: same method as Example 2; for intracellular localization: A498 cells
Description: 786o cells (3×10^5/well) were seeded in a 6-well plate in advance and placed in a cell culture incubator for 48 h. After the culture medium was blotted, a culture medium comprising the corresponding compound (5 μM) and Mito-tracker (0.2 nM) was added to the experimental well, incubated for 30 min, cleaned three times with PBS solution, and imaged using a fluorescence microscope equipped with an infrared camera and a continuous LED light source. The near-infrared photos were taken under Ex=745 nm, Em=820 nm; the Mito-tracker photos were taken under Ex=488 nm and Em=520 nm.
The same method as Example 2 was employed except that the human renal cancer cell line A498 was used to detect the localization of Compounds 4, 5 within the cell.

[8] = system: tumor tissue in a mouse subcutaneous xenograft breast cancer tumor model; assay: Near-infrared imaging of tumor tissue, breast cancer model; conditions: compound:surfactin 1:5, breast cancer xenograft tumor tissue; for correlation between uptake by tumor tissues and immersion time: ROI
Excerpt: as §1, §2

SMILES | fluorescence quenching in aqueous solution under the action of surfactin compared with methanol solution (emission spectra) [1] | fluorescence quenching effect when the amount of surfactin was reduced [1] | fluorescence quenching effect, comparison between compounds [2] | recognition of tumor lesions [3] | reason for near-infrared imaging of tumor tissues [4] | correlation between uptake by tumor tissues and immersion time [4] | effect of excessive sodium bromosulfophthalein on uptake by tumor tissues [5] | fluorescence signal in aqueous solution after mixing ([6]; mixed with anionic surfactants (surfactin, sodium dodecyl sulfonate, sodium dodecyl benzene sulfonate)) | fluorescence signal in aqueous solution after mixing ([6]; mixed with cationic surfactants (dodecyltrimethylammonium chloride, tetrabutylammonium iodide)) | fluorescence signal in aqueous solution after mixing ([6]; mixed with human serum albumin) | fluorescence signal in aqueous solution after mixing ([6]; mixed with nonionic surfactants (Kolliphor, P123)) | imaging ranking [3] | intracellular localization [7] | uptake by tumor cells [7] | overall imaging of tumor tissue [4] | uptake of the compound by tumor tissue (level) [4] | uptake of the compound by tumor tissue (level) [8] | correlation between uptake by tumor tissues and immersion time [8]
CC1(C)C(/C=C/C2=C(Cl)C(=C/C=C3/N(CCCCCC(=O)O)c4ccccc4C3(C)C)/CCC2)=[N+](CCCCCC(=O)O)c2ccccc21 [Compound 1, reference compound] | obvious fluorescence quenching | significantly reduced | the worst | had a recognition effect | non-specific adsorption of the compounds by tissues | no obvious positive correlation |  |  |  |  |  |  |  |  |  |  |  | 
CC[N+]1=C(/C=C/C2=C(Cl)C(=C/C=C3/N(CCCCCC(=O)O)c4ccccc4C3(C)C)/CCC2)C(C)(C)c2ccccc21 [Compound 3, reference compound] | obvious fluorescence quenching | significantly reduced |  | had a recognition effect | non-specific adsorption of the compounds by tissues | no obvious positive correlation |  |  |  |  |  |  |  |  |  |  |  | 
CC[N+]1=C(/C=C/C2=C(Cl)C(=C/C=C3/N(CCCCCC(=O)Oc4ccccc4)c4ccccc4C3(C)C)/CCC2)C(C)(C)c2ccccc21 [Compound 4] | obvious fluorescence quenching | not significantly reduced | better than that of Compounds 1, 2 and 3 | high specific recognition | targeted recognition of tumor tissues by the compounds | an obvious positive correlation | effectively reduce the uptake | substantially no fluorescence signal | still fluorescence signal | still fluorescence signal | still fluorescence signal | best imaged | enriched in mitochondria | uptaken by tumor cells | optimal imaging of tumor tissue | high uptake | higher | an obvious positive correlation
CC[N+]1=C(/C=C/C2=C(Cl)C(=C/C=C3/N(CCCCCC(=O)Nc4ccc(NC(=O)OC(C)(C)C)cc4)c4ccccc4C3(C)C)/CCC2)C(C)(C)c2ccccc21 [Compound 6] | obvious fluorescence quenching | not significantly reduced |  | high specific recognition | targeted recognition of tumor tissues by the compounds | an obvious positive correlation |  |  |  |  |  | best imaged |  |  | optimal imaging of tumor tissue | high uptake | higher | an obvious positive correlation

Continued, in another order:

fluorescence quenching in aqueous solution under the action of surfactin compared with methanol solution (emission spectra) [1] | fluorescence quenching effect when the amount of surfactin was reduced [1] | fluorescence quenching effect, comparison between compounds [2] | SMILES | recognition of tumor lesions [3] | reason for near-infrared imaging of tumor tissues [4] | correlation between uptake by tumor tissues and immersion time [4] | effect of excessive sodium bromosulfophthalein on uptake by tumor tissues [5] | fluorescence signal in aqueous solution after mixing ([6]; mixed with anionic surfactants (surfactin, sodium dodecyl sulfonate, sodium dodecyl benzene sulfonate)) | fluorescence signal in aqueous solution after mixing ([6]; mixed with cationic surfactants (dodecyltrimethylammonium chloride, tetrabutylammonium iodide)) | fluorescence signal in aqueous solution after mixing ([6]; mixed with human serum albumin) | fluorescence signal in aqueous solution after mixing ([6]; mixed with nonionic surfactants (Kolliphor, P123)) | imaging ranking [3] | intracellular localization [7] | uptake by tumor cells [7] | overall imaging of tumor tissue [4] | uptake of the compound by tumor tissue (level) [4] | uptake of the compound by tumor tissue (level) [8] | correlation between uptake by tumor tissues and immersion time [8]
obvious fluorescence quenching | significantly reduced |  | CCN1/C(=C/C=C2\CCCC(/C=C/C3=[N+](CC)c4ccccc4C3(C)C)=C2Cl)C(C)(C)c2ccccc21 [Compound 2, reference compound] | had a recognition effect | non-specific adsorption of the compounds by tissues | no obvious positive correlation |  |  |  |  |  |  |  |  |  |  |  | 
obvious fluorescence quenching | not significantly reduced | better than that of Compounds 1, 2 and 3 | CC[N+]1=C(/C=C/C2=C(Cl)C(=C/C=C3/N(CCCCCC(=O)Oc4ccc(NC(=O)OC(C)(C)C)cc4)c4ccccc4C3(C)C)/CCC2)C(C)(C)c2ccccc21 [Compound 5] | high specific recognition | targeted recognition of tumor tissue by the compounds | a certain positive correlation |  |  |  |  |  |  | enriched in mitochondria | uptaken by tumor cells |  | low uptake |  | 
